Columns and labels:
[1] = system: human malignant melanoma cell line WM2664
Method: The purpose of the experiment was to test the in vivo anti-tumor effect of the compound of the invention. […] The cell line used was human malignant melanoma cell line WM2664. The drug (sorafenib) undergoing anti-melanoma clinical trial was used as the positive control.
BALB/C nude mice at age of 6 to 8 weeks were used, and WM2664 cells were inoculated at the subcutaneous posterior ribs of the mice at a concentration of 5×106/0.1 mL/mouse; after the tumors grew to 200-300 mm^3 (for about 15 days), mice (n=6) were grouped and subject to oral intragastric administration.
Observation targets: Mouse weight and long and short diameters of tumor were measured every 3 days, and tumor volume (length×width^2×0.52) was calculated to observe for diarrhea, convulsion, rash, significant weight loss and other reactions.

[2] = system: human colorectal carcinoma cell line HT29; experiment: In vivo anti-tumor experiment, nude mouse-subcutaneous human colorectal carcinoma HT29 model; design: species or system BALB/C nude mice
Text: (§1) The cell lines used were human colorectal carcinoma cell line HT29 and human glioma cell line U251.

[3] = system: human glioma cell line U251; experiment: In vivo anti-tumor experiment, nude mouse-subcutaneous human glioma U251 model; design: species or system BALB/C nude mice
Text: as §1

[4] = daily dose of 30 mg/kg or above, oral
[5] = nude mice, 15-60 mg/kg q.d. oral

For `O=C(Nc1ccc(Oc2ncnc3[nH]ncc23)cc1)Nc1ccc(Cl)c(C(F)(F)F)c1` [4a-2], the “effect compared with sorafenib” value ([1]; 4a-2 25 mg/kg/d vs sorafenib at daily dose of 50 mg/kg) was “more effective than sorafenib” and the “in vivo tumor growth inhibition effect” value ([1]; dose of 25 mg/kg/d, oral, WM2664 (BRAF V600D) model) was “obviously inhibit tumor growth”.
With `O=C(Nc1ccc(Oc2ncnc3[nH]ncc23)cc1)Nc1cccc(C(F)(F)F)c1` [4a-6] the “in vivo tumor growth inhibition effect” value [2, 4] was “obviously inhibit tumor growth”, the “weight loss, rash, diarrhea and other adverse reactions during administration” value [2, 5] was “not found” and the “in vivo tumor growth inhibition effect” value [3, 4] was “obviously inhibit tumor growth”. The “weight loss, rash, diarrhea and other adverse reactions during administration” value [3, 5] was “not found”.

Source: patent publication US9828375B2, “4-position substituted pyrazolopyrimidine derivative, and use thereof in drug preparation” (Guangxi Wuzhou Pharmaceuticals (Group) Co., Ltd., priority 2012, dated 2017)
